Experimental data: the kinase profiling compilation of Christmann-Franck et al. (2016)

What was measured:
Assay in all cases: KINOMEscan competition binding
Conditions in all cases: compound 10.0 µM
MAST1 (human) = MAST1 (human) (UniProt Q9Y2H9)
DDR1 (human) = DDR1 (human) (UniProt Q08345)
CDK4 CCND3 (human) = CDK4 CCND3 (human) (UniProt P11802+P30281)
SIK3 (human) = SIK3 (human) (UniProt Q9Y2K2)
MAP3K6 (human) = MAP3K6 (human) (UniProt O95382)
GRK4 (human) = GRK4 (human) (UniProt P32298)
[1] = test system: PIK3CA (human), P42336 [I800L]
CDKL1 (human) = CDKL1 (human) (UniProt Q00532)
TIE1 (human) = TIE1 (human) (UniProt P35590)
TAOK2 (human) = TAOK2 (human) (UniProt Q9UL54)
PIK3CA (human) = PIK3CA (human) (UniProt P42336)
GRK7 (human) = GRK7 (human) (UniProt Q8WTQ7)
LRRK2 (human) = LRRK2 (human) (UniProt Q5S007)
HIPK3 (human) = HIPK3 (human) (UniProt Q9H422)
HIPK2 (human) = HIPK2 (human) (UniProt Q9H2X6)
MAP2K7 (human) = MAP2K7 (human) (UniProt O14733)
PIK3CG (human) = PIK3CG (human) (UniProt P48736)
GRK1 (human) = GRK1 (human) (UniProt Q15835)
[2] = test system: PIK3CA (human), P42336 [C420R]
PLK2 (human) = PLK2 (human) (UniProt Q9NYY3)
BTK (human) = BTK (human) (UniProt Q06187)
KIT (human) = KIT (human) (UniProt P10721)
PIK3C2G (human) = PIK3C2G (human) (UniProt O75747)
NIM1 (human) = NIM1 (human) (UniProt Q8IY84)
MATK (human) = MATK (human) (UniProt P42679)
VRK2 (human) = VRK2 (human) (UniProt Q86Y07)
SNRK (human) = SNRK (human) (UniProt Q9NRH2)
DYRK2 (human) = DYRK2 (human) (UniProt Q92630)
IRAK1 (human) = IRAK1 (human) (UniProt P51617)
[3] = test system: EGFR (human), P00533 [L861Q]
PRKCI (human) = PRKCI (human) (UniProt P41743)
ICK (human) = ICK (human) (UniProt Q9UPZ9)
MAP2K5 (human) = MAP2K5 (human) (UniProt Q13163)
STK38 (human) = STK38 (human) (UniProt Q15208)
[4] = test system: EGFR (human), P00533 [G719S]
CRK2 (P.falciparum) = CRK2 (P.falciparum) (UniProt P61075)
[5] = test system: PIK3CA (human), P42336 [E545K]
EIF2AK1 (human) = EIF2AK1 (human) (UniProt Q9BQI3)
CDKL3 (human) = CDKL3 (human) (UniProt Q8IVW4)
BRAF (human) = BRAF (human) (UniProt P15056)

PIK3C2G (human), sequence (O75747 whole entry, looked up): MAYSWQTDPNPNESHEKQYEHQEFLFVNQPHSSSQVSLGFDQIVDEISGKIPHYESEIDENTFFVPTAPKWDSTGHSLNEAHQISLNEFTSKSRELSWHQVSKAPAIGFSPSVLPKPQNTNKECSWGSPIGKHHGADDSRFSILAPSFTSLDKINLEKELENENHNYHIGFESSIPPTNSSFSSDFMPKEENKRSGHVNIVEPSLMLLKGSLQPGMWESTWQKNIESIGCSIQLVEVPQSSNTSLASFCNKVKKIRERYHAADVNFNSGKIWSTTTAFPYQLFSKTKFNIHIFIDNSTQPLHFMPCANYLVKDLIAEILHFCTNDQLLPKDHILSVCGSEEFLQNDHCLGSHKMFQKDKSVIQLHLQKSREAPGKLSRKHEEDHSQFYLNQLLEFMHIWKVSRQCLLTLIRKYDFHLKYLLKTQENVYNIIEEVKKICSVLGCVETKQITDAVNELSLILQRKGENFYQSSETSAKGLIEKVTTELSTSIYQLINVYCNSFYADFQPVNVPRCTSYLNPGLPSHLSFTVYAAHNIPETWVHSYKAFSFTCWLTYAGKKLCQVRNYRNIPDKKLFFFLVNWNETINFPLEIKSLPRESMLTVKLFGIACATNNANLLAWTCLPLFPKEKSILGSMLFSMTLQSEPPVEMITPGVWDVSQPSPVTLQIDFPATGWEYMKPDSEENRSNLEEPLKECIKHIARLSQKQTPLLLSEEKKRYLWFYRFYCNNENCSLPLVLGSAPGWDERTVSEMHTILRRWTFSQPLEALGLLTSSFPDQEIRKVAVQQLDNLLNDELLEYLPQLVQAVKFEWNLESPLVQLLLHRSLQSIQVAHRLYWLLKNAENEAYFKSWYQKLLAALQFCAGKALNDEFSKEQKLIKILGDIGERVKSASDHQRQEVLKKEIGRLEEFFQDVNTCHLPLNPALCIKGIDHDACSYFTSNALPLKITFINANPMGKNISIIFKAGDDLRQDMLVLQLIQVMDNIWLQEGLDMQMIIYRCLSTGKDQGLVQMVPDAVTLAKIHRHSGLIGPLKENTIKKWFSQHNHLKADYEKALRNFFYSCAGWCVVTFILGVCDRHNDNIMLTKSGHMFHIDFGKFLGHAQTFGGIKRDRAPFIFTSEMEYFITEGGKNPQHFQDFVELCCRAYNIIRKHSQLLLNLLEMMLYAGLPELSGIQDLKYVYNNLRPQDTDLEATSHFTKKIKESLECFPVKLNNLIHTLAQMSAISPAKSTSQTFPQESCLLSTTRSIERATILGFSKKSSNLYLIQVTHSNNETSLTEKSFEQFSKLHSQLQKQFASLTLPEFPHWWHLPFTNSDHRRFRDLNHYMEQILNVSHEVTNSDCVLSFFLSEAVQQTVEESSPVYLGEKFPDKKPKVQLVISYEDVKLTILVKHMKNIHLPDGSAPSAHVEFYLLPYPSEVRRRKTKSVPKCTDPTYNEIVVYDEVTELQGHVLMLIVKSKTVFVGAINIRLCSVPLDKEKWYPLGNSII
CRK2 (P.falciparum), sequence (P61075 whole entry, looked up): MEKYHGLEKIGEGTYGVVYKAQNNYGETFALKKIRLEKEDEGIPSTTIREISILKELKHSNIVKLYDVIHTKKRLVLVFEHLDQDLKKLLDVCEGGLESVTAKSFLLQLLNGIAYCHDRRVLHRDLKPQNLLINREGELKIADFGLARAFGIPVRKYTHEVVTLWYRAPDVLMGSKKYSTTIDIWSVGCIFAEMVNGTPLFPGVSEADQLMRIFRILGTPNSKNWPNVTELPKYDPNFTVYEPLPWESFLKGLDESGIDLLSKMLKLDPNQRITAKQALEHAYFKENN
TAOK2 (human), sequence (Q9UL54 whole entry, looked up): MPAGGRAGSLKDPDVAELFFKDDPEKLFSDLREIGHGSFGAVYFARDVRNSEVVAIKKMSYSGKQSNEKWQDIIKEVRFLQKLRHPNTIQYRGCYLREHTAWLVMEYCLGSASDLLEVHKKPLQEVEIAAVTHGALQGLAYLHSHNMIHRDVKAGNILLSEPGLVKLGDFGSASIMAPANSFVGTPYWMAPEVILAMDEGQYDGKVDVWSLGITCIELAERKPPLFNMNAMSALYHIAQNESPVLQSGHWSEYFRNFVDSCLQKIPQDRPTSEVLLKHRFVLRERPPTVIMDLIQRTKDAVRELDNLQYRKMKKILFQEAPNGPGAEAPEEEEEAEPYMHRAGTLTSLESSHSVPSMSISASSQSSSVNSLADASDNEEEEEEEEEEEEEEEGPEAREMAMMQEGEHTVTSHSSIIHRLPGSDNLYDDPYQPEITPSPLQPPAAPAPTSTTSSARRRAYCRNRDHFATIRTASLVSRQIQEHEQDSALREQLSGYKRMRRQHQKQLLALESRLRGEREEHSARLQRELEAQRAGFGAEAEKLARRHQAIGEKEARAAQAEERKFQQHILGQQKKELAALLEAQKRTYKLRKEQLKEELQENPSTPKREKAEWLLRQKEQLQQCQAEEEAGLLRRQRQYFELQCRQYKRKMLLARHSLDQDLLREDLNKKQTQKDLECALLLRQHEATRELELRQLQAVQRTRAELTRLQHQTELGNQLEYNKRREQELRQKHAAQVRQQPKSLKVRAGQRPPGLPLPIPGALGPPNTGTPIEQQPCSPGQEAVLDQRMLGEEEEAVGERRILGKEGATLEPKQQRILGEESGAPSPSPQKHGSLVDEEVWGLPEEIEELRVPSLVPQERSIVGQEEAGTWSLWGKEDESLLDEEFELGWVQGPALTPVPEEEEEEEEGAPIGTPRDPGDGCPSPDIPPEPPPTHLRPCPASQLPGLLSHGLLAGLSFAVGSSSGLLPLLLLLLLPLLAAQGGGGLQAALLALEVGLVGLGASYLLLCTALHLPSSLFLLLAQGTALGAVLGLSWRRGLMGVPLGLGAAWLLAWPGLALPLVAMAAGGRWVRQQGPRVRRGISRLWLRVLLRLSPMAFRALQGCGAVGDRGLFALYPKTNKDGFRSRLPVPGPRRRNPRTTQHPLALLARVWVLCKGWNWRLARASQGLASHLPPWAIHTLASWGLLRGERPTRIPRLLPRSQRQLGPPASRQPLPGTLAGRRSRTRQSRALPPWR
MAP2K5 (human), sequence (Q13163 whole entry, looked up): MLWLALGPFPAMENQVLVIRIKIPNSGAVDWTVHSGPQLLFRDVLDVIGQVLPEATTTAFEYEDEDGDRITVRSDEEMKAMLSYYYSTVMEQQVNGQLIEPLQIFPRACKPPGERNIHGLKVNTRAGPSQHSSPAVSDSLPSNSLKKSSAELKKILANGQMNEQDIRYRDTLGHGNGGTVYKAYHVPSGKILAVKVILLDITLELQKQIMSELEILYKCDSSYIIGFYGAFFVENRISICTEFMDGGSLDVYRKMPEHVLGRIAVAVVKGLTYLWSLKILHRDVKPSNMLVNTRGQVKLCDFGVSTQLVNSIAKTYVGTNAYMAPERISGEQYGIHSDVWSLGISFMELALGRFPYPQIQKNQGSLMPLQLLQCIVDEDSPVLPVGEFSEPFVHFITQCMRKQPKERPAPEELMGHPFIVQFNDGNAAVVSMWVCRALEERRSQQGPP
PRKCI (human), sequence (P41743 whole entry, looked up): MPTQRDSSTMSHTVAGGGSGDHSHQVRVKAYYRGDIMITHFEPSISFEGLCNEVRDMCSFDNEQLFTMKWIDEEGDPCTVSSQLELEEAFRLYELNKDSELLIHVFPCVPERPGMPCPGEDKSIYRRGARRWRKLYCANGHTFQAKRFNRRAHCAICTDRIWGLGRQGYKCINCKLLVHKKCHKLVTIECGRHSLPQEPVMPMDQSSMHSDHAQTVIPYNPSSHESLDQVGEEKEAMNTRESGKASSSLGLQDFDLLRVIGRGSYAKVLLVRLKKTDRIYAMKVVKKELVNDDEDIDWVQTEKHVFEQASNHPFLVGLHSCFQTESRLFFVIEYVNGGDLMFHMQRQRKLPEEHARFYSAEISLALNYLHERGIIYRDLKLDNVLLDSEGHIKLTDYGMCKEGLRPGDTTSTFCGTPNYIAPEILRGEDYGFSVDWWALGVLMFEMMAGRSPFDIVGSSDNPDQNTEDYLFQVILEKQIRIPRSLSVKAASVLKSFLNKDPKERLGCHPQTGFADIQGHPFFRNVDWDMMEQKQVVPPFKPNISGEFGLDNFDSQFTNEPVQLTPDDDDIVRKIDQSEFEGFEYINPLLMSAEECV
CDKL3 (human), sequence (Q8IVW4 whole entry, looked up): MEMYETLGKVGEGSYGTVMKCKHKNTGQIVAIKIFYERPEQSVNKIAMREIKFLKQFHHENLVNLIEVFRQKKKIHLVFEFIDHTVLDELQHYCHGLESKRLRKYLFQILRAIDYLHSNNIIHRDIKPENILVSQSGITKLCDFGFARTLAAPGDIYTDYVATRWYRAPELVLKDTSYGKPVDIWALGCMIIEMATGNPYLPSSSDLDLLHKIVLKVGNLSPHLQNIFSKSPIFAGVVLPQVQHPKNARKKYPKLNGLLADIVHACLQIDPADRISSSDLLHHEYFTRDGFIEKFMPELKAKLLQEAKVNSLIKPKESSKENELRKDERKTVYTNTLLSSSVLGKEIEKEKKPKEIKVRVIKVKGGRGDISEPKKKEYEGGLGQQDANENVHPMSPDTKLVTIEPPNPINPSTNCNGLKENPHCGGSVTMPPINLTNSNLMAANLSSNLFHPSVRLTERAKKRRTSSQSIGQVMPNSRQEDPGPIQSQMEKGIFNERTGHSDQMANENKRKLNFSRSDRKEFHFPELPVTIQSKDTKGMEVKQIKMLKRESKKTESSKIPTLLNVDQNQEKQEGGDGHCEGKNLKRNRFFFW
CDKL1 (human), sequence (Q00532 whole entry, looked up): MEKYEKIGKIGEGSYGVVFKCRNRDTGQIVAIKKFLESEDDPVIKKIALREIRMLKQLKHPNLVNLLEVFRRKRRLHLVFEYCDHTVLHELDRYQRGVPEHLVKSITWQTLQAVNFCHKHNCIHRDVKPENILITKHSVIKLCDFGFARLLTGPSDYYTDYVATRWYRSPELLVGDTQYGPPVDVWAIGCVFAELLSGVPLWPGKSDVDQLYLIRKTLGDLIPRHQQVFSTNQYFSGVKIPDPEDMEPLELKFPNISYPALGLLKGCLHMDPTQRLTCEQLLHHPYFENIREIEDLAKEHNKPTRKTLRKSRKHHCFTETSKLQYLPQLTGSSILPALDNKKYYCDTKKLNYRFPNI

Row | SMILES | kinase still bound, per cent of control (MAST1 (human)) | kinase still bound, per cent of control (DDR1 (human)) | kinase still bound, per cent of control (CDK4 CCND3 (human)) | kinase still bound, per cent of control (SIK3 (human)) | kinase still bound, per cent of control (MAP3K6 (human)) | kinase still bound, per cent of control (GRK4 (human)) | kinase still bound, per cent of control [1] | kinase still bound, per cent of control (CDKL1 (human)) | kinase still bound, per cent of control (TIE1 (human)) | kinase still bound, per cent of control (TAOK2 (human)) | kinase still bound, per cent of control (GRK7 (human)) | kinase still bound, per cent of control (LRRK2 (human)) | kinase still bound, per cent of control (HIPK3 (human)) | kinase still bound, per cent of control (HIPK2 (human)) | kinase still bound, per cent of control (MAP2K7 (human)) | kinase still bound, per cent of control (GRK1 (human)) | kinase still bound, per cent of control (PLK2 (human)) | kinase still bound, per cent of control (BTK (human)) | kinase still bound, per cent of control (KIT (human)) | kinase still bound, per cent of control (NIM1 (human)) | other results
1 | CCN1CCN(Cc2ccc(Nc3ncc4c(n3)N(C)c3ccccc3C(=O)N4C)cc2C(F)(F)F)CC1 | 100% | 14% | 100% | 74% | 100% | 56% | 12% | 98% | 22% | 0.1% | 73% | 15% | 76% | 100% | 100% | 78% | 100% | 67% | 57% | 57% | kinase still bound, per cent of control (PIK3CA (human)): 25%; kinase still bound, per cent of control (PIK3CG (human)): 0%; kinase still bound, per cent of control [2]: 18%; kinase still bound, per cent of control (PIK3C2G (human)): 17%; kinase still bound, per cent of control (MATK (human)): 94%; kinase still bound, per cent of control (VRK2 (human)): 100%; kinase still bound, per cent of control (SNRK (human)): 88%; kinase still bound, per cent of control (DYRK2 (human)): 97%; kinase still bound, per cent of control (IRAK1 (human)): 25%; kinase still bound, per cent of control [3]: 98%; kinase still bound, per cent of control (PRKCI (human)): 100%; kinase still bound, per cent of control (ICK (human)): 80%; kinase still bound, per cent of control (MAP2K5 (human)): 35%; kinase still bound, per cent of control (STK38 (human)): 95%; kinase still bound, per cent of control [4]: 99%; kinase still bound, per cent of control (CRK2 (P.falciparum)): 100%; kinase still bound, per cent of control [5]: 24%; kinase still bound, per cent of control (EIF2AK1 (human)): 100%; kinase still bound, per cent of control (CDKL3 (human)): 100%
2 | Nc1ccc(-c2ccc3ncc4ccc(=O)n(-c5cccc(C(F)(F)F)c5)c4c3c2)cn1 | 100% | 100% | 90% | 79% | 100% | 92% | 0% | 97% | 100% | 92% | 60% | 80% | 92% | 53% | 100% | 100% | 100% | 100% | 55% | 100% | kinase still bound, per cent of control (BRAF (human)): 73%; kinase still bound, per cent of control (MATK (human)): 100%; kinase still bound, per cent of control (VRK2 (human)): 100%; kinase still bound, per cent of control (SNRK (human)): 100%; kinase still bound, per cent of control (DYRK2 (human)): 88%; kinase still bound, per cent of control (IRAK1 (human)): 84%; kinase still bound, per cent of control [3]: 93%; kinase still bound, per cent of control (PRKCI (human)): 100%; kinase still bound, per cent of control (ICK (human)): 79%; kinase still bound, per cent of control (MAP2K5 (human)): 84%; kinase still bound, per cent of control (STK38 (human)): 100%; kinase still bound, per cent of control [4]: 88%; kinase still bound, per cent of control (CRK2 (P.falciparum)): 100%; kinase still bound, per cent of control (EIF2AK1 (human)): 91%; kinase still bound, per cent of control (CDKL3 (human)): 100%
3 | Cc1ccc2nc(NCCN)c3ncc(C)n3c2c1 | 100% | 100% | 75% | 100% | 100% | 100% | 100% | 74% | 100% | 70% | 100% | 97% | 32% | 58% | 100% | 100% | 100% | 100% | 37% | 100% | kinase still bound, per cent of control (PIK3CA (human)): 100%; kinase still bound, per cent of control (PIK3CG (human)): 100%; kinase still bound, per cent of control [2]: 52%; kinase still bound, per cent of control (BRAF (human)): 95%; kinase still bound, per cent of control (PIK3C2G (human)): 23%; kinase still bound, per cent of control (MATK (human)): 100%; kinase still bound, per cent of control (VRK2 (human)): 100%; kinase still bound, per cent of control (SNRK (human)): 100%; kinase still bound, per cent of control (DYRK2 (human)): 8.8%; kinase still bound, per cent of control (IRAK1 (human)): 78%; kinase still bound, per cent of control [3]: 100%; kinase still bound, per cent of control (PRKCI (human)): 88%; kinase still bound, per cent of control (ICK (human)): 100%; kinase still bound, per cent of control (MAP2K5 (human)): 96%; kinase still bound, per cent of control [4]: 100%; kinase still bound, per cent of control (CRK2 (P.falciparum)): 100%; kinase still bound, per cent of control [5]: 100%; kinase still bound, per cent of control (EIF2AK1 (human)): 87%; kinase still bound, per cent of control (CDKL3 (human)): 98%
4 | C=CC(=O)Nc1cccc(Nc2nc(N[C@H]3CC[C@H](N(C)C)CC3)nc3c2ncn3C(C)C)c1 | 83% | 100% | 23% | 92% | 86% | 43% | 100% | 100% | 86% | 66% | 8.7% | 61% | 26% | 17% | 100% | 47% | 52% | 35% | 52% | 66% | kinase still bound, per cent of control (PIK3CA (human)): 100%; kinase still bound, per cent of control (PIK3CG (human)): 100%; kinase still bound, per cent of control [2]: 89%; kinase still bound, per cent of control (PIK3C2G (human)): 100%; kinase still bound, per cent of control (MATK (human)): 40%; kinase still bound, per cent of control (VRK2 (human)): 11%; kinase still bound, per cent of control (SNRK (human)): 68%; kinase still bound, per cent of control (DYRK2 (human)): 58%; kinase still bound, per cent of control (IRAK1 (human)): 1.8%; kinase still bound, per cent of control [3]: 100%; kinase still bound, per cent of control (PRKCI (human)): 93%; kinase still bound, per cent of control (ICK (human)): 100%; kinase still bound, per cent of control (MAP2K5 (human)): 59%; kinase still bound, per cent of control (STK38 (human)): 19%; kinase still bound, per cent of control [4]: 98%; kinase still bound, per cent of control (CRK2 (P.falciparum)): 100%; kinase still bound, per cent of control [5]: 100%; kinase still bound, per cent of control (EIF2AK1 (human)): 100%; kinase still bound, per cent of control (CDKL3 (human)): 100%
